# From US10655185B2, “Methods for diagnosis and prognosis of epithelial tumors” (H. Lee Moffitt Cancer Center and Research Institute, Inc., priority 2014, dated 2020)
# System: LNCaP-104S cells
# Assay: Genome-wide miRNA expression profiling of androgen deprived / androgen blocked LNCaP cells
# Assay type: cell-based
# Excerpt: FIGS. 1A and 1B show expression of miR-17-92 and Frabin in Androgen Deprived LNCaP Cells. The androgen dependent cell line, LNCaP-104S, was subjected to androgen deprivation or androgen blockade for 3 weeks. Genome-wide miRNA expression profiling identified the miR-17-92 family to be down regulated by 1 week, and further reduced at 3 weeks of treatment. […] FIG. 1B is a Western blot of FGD4/Frabin expression in treated and untreated LNCaP-104S cells.
# Prolonged androgen blockade leads to outgrowth of androgen independent (AI) cells and the development of castration resistant prostate cancer (CRPC). The transition to androgen independence can occur through several adaptive mechanisms and usually results in the acquisition of a more aggressive phenotype, compared to their androgen sensitive progenitors. […] However, the role of miRNAs in progression of androgen sensitive prostate cancer to CRPC has not been clearly defined. To study this transition, androgen sensitive (AS) LNCaP prostate cancer cells were subjected to androgen blockade until a subset of cells (CDXR) survived. […] The miR-17-92 cluster is one of the groups of miRNAs that is down regulated as the cancer cells progresses towards androgen […] (ADT) resistance.
smiles,measurement,setting,value
CC(O)(CS(=O)(=O)c1ccc(F)cc1)C(=O)Nc1ccc(C#N)c(C(F)(F)F)c1 (stereo not shown) [CDX],fold change in expression (Δ Change) of hsa-miR-17,1 wk CDX,−3.37
same,fold change in expression (Δ Change) of hsa-miR-17*,1 wk CDX,−3.13
same,fold change in expression (Δ Change) of hsa-miR-18a,1 wk CDX,−4.36
same,fold change in expression (Δ Change) of hsa-miR-18b,1 wk CDX,−2.28
same,fold change in expression (Δ Change) of hsa-miR-20a,1 wk CDX,−3.31
same,fold change in expression (Δ Change) of hsa-miR-20a*,1 wk CDX,−1.25
same,fold change in expression (Δ Change) of hsa-miR-20b*,1 wk CDX,−0.56
same,fold change in expression (Δ Change) of hsa-miR-106a,1 wk CDX,−3.18
same,fold change in expression (Δ Change) of hsa-miR-17,3 wks CDX,−24.99
same,fold change in expression (Δ Change) of hsa-miR-17*,3 wks CDX,−3.94
same,fold change in expression (Δ Change) of hsa-miR-18a,3 wks CDX,−14.13
same,fold change in expression (Δ Change) of hsa-miR-18b,3 wks CDX,−21.36
same,fold change in expression (Δ Change) of hsa-miR-20a,3 wks CDX,−4.12
same,fold change in expression (Δ Change) of hsa-miR-20a*,3 wks CDX,−18.17
same,fold change in expression (Δ Change) of hsa-miR-20b*,3 wks CDX,−4.60
same,fold change in expression (Δ Change) of hsa-miR-106a,3 wks CDX,−9.40
